Tested on: Adult L. serricata (blowflies)
Test: Test A: adult blowflies on blood agar containing test compound, scored by number of dead flies
Format: in vivo
Conditions: 4 flies in test
Protocol: Adult L. serricata (blowflies): Adult flies are placed on beds of blood agar (in individual test wells; 4 flies per well) in which test compound, (3-bromo-N-[4-chloro-2-methyl-6-[(methylamino)carbonyl]phenyl]-1-(3-chloro-2-pyridinyl)-1H-pyrazole-5-carboxamide), was dissolved/suspended prior to hardening of agar. Flies can take up test compound by both ingestion and contact. Assays are scored by number of dead flies at 2 hours, 4 hours, and 24 hours.

Row | Structure (SMILES) | Number dead flies at 2 hours (Rate 1 ppm in blood agar) | Number dead flies at 4 hours (Rate 1 ppm in blood agar) | Number dead flies at 24 hours (Rate 1 ppm in blood agar) | Number dead flies at 2 hours (Rate 10 ppm in blood agar) | Number dead flies at 4 hours (Rate 10 ppm in blood agar) | Number dead flies at 24 hours (Rate 10 ppm in blood agar) | Number dead flies at 2 hours (Rate 25 ppm in blood agar) | Number dead flies at 4 hours (Rate 25 ppm in blood agar) | Number dead flies at 24 hours (Rate 25 ppm in blood agar) | Number dead flies at 2 hours (Rate 50 ppm in blood agar) | Number dead flies at 4 hours (Rate 50 ppm in blood agar) | Number dead flies at 24 hours (Rate 50 ppm in blood agar) | Number dead flies at 2 hours (Rate 100 ppm in blood agar) | Number dead flies at 4 hours (Rate 100 ppm in blood agar) | Number dead flies at 24 hours (Rate 100 ppm in blood agar)
1 | CCOP(=S)(OCC)Oc1nc(Cl)c(Cl)cc1Cl [Chloropyriphos, O,O-diethyl-O-3,5,6-trichloro-2-pyridyl-phosphorothioate] | 0 | 1 | 4 | 1 | 4 | 4 | 3 | 4 | 4 | 4 | 4 | 4 | 4 | 4 | 4
2 | CNC(=O)c1cc(Cl)cc(C)c1NC(=O)c1cc(Br)nn1-c1ncccc1Cl [Test Compound, 3-bromo-N-[4-chloro-2-methyl-6-[(methylamino)carbonyl]phenyl]-1-(3-chloro-2-pyridinyl)-1H-pyrazole-5-carboxamide] | 0 | 0 | 0 | 0 | 0 | 1 | 0 | 0 | 2 | 0 | 0 | 2 | 0 | 0 | 3
